Reference: patent publication US8338565B2, “Macrocyclic compounds for inhibition of tumor necrosis factor alpha” (Ensemble Therapeutics Corporation, priority 2008, dated 2012)
Numbered stars: 1 amine (or outer) side, 2 acyl side, 3 side chain; on linkers, the order of the positions; unused ones are H or OH. Bridge positions count the residues as written; N and C are the ends. Square brackets hold non-standard residues; d marks the D form. Peptide text beside a SMILES is read from it. * marks the point of attachment. Tartaroyl(2R,3R-(OAc)2) = CC(=O)O[C@@H](C(=O)[*:1])[C@@H](OC(C)=O)C(=O)[*:2]; Gly(N-(4-CH2NH-benzyl)) = O=C(CN(Cc1ccc(CN[*:3])cc1)[*:1])[*:2]; Phe(4-CF3) = N[C@@H](Cc1ccc(C(F)(F)F)cc1)C(=O)O; dPhe(3-CF3) = N[C@H](Cc1cccc(C(F)(F)F)c1)C(=O)O; Phe(4-COOH) = N[C@@H](Cc1ccc(C(=O)O)cc1)C(=O)O; Phe(2,4-Cl2) = N[C@@H](Cc1ccc(Cl)cc1Cl)C(=O)O; dPhe(3-OMe) = COc1cccc(C[C@@H](N)C(=O)O)c1; Bip = N[C@@H](Cc1ccc(-c2ccccc2)cc1)C(=O)O; dPhe(4-NH2) = Nc1ccc(C[C@@H](N)C(=O)O)cc1; Phe(4-Br) = N[C@@H](Cc1ccc(Br)cc1)C(=O)O; dPhe(4-Br) = N[C@H](Cc1ccc(Br)cc1)C(=O)O; Phe(4-NH2) = Nc1ccc(C[C@H](N)C(=O)O)cc1; Ala(2-furyl) = N[C@@H](Cc1ccco1)C(=O)O; Phe(4-Me) = Cc1ccc(C[C@H](N)C(=O)O)cc1; dPhe(4-F) = N[C@H](Cc1ccc(F)cc1)C(=O)O; 2Nal = N[C@@H](Cc1ccc2ccccc2c1)C(=O)O; His(τ-Me) = Cn1cnc(C[C@H](N)C(=O)O)c1; d(hPhe) = N[C@H](CCc1ccccc1)C(=O)O; hPhe = N[C@@H](CCc1ccccc1)C(=O)O; 2Thi = N[C@@H](Cc1cccs1)C(=O)O; Cha = N[C@@H](CC1CCCCC1)C(=O)O; d2Thi = N[C@H](Cc1cccs1)C(=O)O; Suc = O=C(CCC(=O)[*:2])[*:1]; Dap = NC[C@H](N)C(=O)O; Bn = c1ccc(C*)cc1

Each molecule was assayed against T1, TNFα / TNFα receptor (TNFα R1/Fc) (Homo sapiens, UniProt P01375) (assay: Inhibition of binding of TNFα to the TNFα receptor (plate ELISA competition)). Details: Activity (IC50, inhibition of TNFα binding to TNFα R1/Fc), Table 2.
T1 construct: purchased R&D Systems
T1 sequence (P01375 77-233 limits assumed, species assumed): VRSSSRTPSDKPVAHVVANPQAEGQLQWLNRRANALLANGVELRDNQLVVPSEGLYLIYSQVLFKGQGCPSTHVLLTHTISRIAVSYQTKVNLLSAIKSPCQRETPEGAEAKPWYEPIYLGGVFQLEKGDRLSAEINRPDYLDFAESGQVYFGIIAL
Procedure, shortened: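 Compound dilutions were preincubated 30 min at RT with 8.33 nM TNFα R1/Fc in PBST with 2% DMSO, then added to wells coated with 15 nM TNFα for 30 min. Bound receptor was detected with HRP anti-human Fc and TMB, read as A450.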

Structure (SMILES) | IC50
O=C1COc2ccc(cc2)C[C@H](C(=O)N[C@H](Cc2ccccc2)C(=O)O)NC(=O)[C@@H](CCc2ccccc2)NC(=O)[C@H](Cc2ccc(-c3ccccc3)cc2)NC(=O)[C@@H](Cc2cccs2)N1 [Compound 562] | < 10 µM
O=C1COc2ccc(cc2)C[C@@H](C(=O)N[C@H](Cc2ccccc2)C(=O)O)NC(=O)[C@H](CCc2ccccc2)NC(=O)[C@@H](Cc2ccc(-c3ccccc3)cc2)NC(=O)[C@H](Cc2ccncc2)N1 [Compound 553] | < 10 µM

Same assay, conditions: Table 2; read-out: Activity (IC50, inhibition of TNFα binding to TNFα R1/Fc)

Structure (SMILES) | IC50
Cn1cnc(C[C@@H]2NC(=O)[C@@H](Cc3cccs3)NC(=O)CCC(=O)Nc3ccc(cc3)C[C@@H](C(=O)O)NC(=O)[C@@H](Cc3ccccc3)NC2=O)c1 [Compound 100] ([d2Thi][His(τ-Me)][dF][Phe(4-NH2)]-OH; linker N-4 via Suc) | > 100 µM
O=C1CCC(=O)N[C@H](CCc2ccccc2)C(=O)N[C@@H](Cc2ccc(Cl)cc2Cl)C(=O)N[C@H](Cc2ccccc2)C(=O)N[C@@H](C(=O)N[C@@H](Cc2ccccc2)C(=O)O)Cc2ccc(cc2)N1 [Compound 441] ([d(hPhe)][Phe(2,4-Cl2)][dF][dPhe(4-NH2)]F-OH; linker N-4 via Suc) | 10 to 30 µM
O=C1COc2ccc(cc2)C[C@@H](C(=O)N[C@@H](Cc2ccccc2)C(=O)O)NC(=O)[C@H](CCc2ccccc2)NC(=O)[C@@H](Cc2ccc(-c3ccccc3)cc2)NC(=O)[C@H](Cc2ccc(-c3ccncc3)cc2)N1 [Compound 581] | < 10 µM
CS(=O)(=O)NC(=O)[C@@H]1Cc2ccc(cc2)OCC(=O)N[C@@H](Cc2ccncc2)C(=O)N[C@H](Cc2ccc(-c3ccccc3)cc2)C(=O)N[C@@H](CCc2ccccc2)C(=O)N1 [Compound 600] | 10 to 30 µM
O=C(O)CN1Cc2ccc(cc2)CNC(=O)CCC(=O)N[C@H](Cc2cccs2)C(=O)N[C@@H](Cc2ccc(-c3ccccc3)cc2)C(=O)N[C@H](Cc2ccccc2)C1=O [Compound 186] ([d2Thi][Bip][dF][Gly(N-(4-CH2NH-benzyl))]-OH; linker N-4 via Suc) | 30 to 100 µM
O=C1CCC(=O)N[C@H](Cc2cccs2)C(=O)N[C@@H](CC2CCCCC2)C(=O)N[C@H](Cc2ccccc2)C(=O)N[C@H](C(=O)O)Cc2ccc(cc2)N1 [Compound 84] ([d2Thi][Cha][dF][Phe(4-NH2)]-OH; linker N-4 via Suc) | > 100 µM
Cc1ccc(C[C@@H]2NC(=O)[C@@H](Cc3cccs3)NC(=O)CCC(=O)Nc3ccc(cc3)C[C@@H](C(=O)O)NC(=O)[C@@H](Cc3ccccc3)NC2=O)cc1 [Compound 103] ([d2Thi][Phe(4-Me)][dF][Phe(4-NH2)]-OH; linker N-4 via Suc) | > 100 µM
O=C1COc2ccc(cc2)C[C@@H](C(=O)O)NC(=O)[C@H](Cc2ccccc2)NC(=O)[C@@H](Cc2cccc3ccccc23)NC(=O)[C@H](Cc2cccs2)N1 [Compound 357] | > 100 µM
O=C1CCC(=O)N[C@H](COCc2ccccc2)C(=O)N[C@@H](Cc2ccc(C(F)(F)F)cc2)C(=O)N[C@H](Cc2ccccc2)C(=O)N[C@H](C(=O)O)Cc2ccc(cc2)N1 [Compound 137] ([dS](Bn)[Phe(4-CF3)][dF][Phe(4-NH2)]-OH; linker N-4 via Suc) | 30 to 100 µM
O=C1COc2ccc(cc2)C[C@@H](C(=O)N2CCC(C(=O)O)CC2)NC(=O)[C@@H](CCc2ccccc2)NC(=O)[C@H](Cc2ccc(-c3ccccc3)cc2)NC(=O)[C@@H](Cc2cccs2)N1 [Compound 306] | < 10 µM
O=C1CCC(=O)N[C@H](Cc2ccc(F)cc2)C(=O)N[C@@H](Cc2ccc(C(F)(F)F)cc2)C(=O)N[C@H](Cc2ccccc2)C(=O)N[C@H](C(=O)O)Cc2ccc(cc2)N1 [Compound 134] ([dPhe(4-F)][Phe(4-CF3)][dF][Phe(4-NH2)]-OH; linker N-4 via Suc) | > 100 µM
O=C1COc2ccc(cc2)C[C@@H](C(=O)O)NC(=O)[C@H](Cc2ccc(F)cc2)NC(=O)[C@@H](Cc2ccc(-c3ccccc3)cc2)NC(=O)[C@H](Cc2ccncc2)N1 [Compound 637] | < 10 µM
O=C1COc2ccc(cc2)C[C@@H](C(=O)O)NC(=O)[C@@H](CCc2ccccc2)NC(=O)[C@H](Cc2ccc(F)cc2)NC(=O)[C@@H](Cc2cccs2)N1 [Compound 527] | > 100 µM
O=C1COc2ccc(cc2)C[C@@H](C(=O)O)NC(=O)[C@@H](CCc2ccccc2)NC(=O)[C@H](Cc2ccc(-c3ccc(C(=O)OCc4ccccc4)cc3)cc2)NC(=O)[C@@H](Cc2cccs2)N1 [Compound 526] | > 100 µM
O=C1COc2ccc(cc2)C[C@@H](C(=O)O)NC(=O)[C@@H](CCc2ccccc2)NC(=O)[C@H](Cc2ccc([N+](=O)[O-])cc2)NC(=O)[C@@H](Cc2cccs2)N1 [Compound 541] | > 100 µM
O=C1COc2ccc(cc2)C[C@@H](C(=O)O)NC(=O)[C@@H](Cc2cccs2)NC(=O)[C@H](Cc2ccc(-c3ccccc3)cc2)NC(=O)[C@@H](Cc2cccs2)N1 [Compound 538] | > 100 µM
O=C1CCC(=O)N[C@H](Cc2cccs2)C(=O)N[C@@H](Cc2ccc(-c3ccccc3)cc2)C(=O)N[C@H](Cc2cccc(C(F)(F)F)c2)C(=O)N[C@H](C(=O)O)Cc2ccc(cc2)N1 [Compound 78] ([d2Thi][Bip][dPhe(3-CF3)][Phe(4-NH2)]-OH; linker N-4 via Suc) | > 100 µM

Structure (SMILES) | IC50
CC(=O)O[C@H]1C(=O)Nc2ccc(cc2)C[C@H](C(=O)O)NC(=O)[C@@H](Cc2ccccc2)NC(=O)[C@H](Cc2ccc(Br)cc2)NC(=O)[C@@H](Cc2cccs2)NC(=O)[C@@H]1OC(C)=O [Compound 232] ([d2Thi][Phe(4-Br)][dF][dPhe(4-NH2)]-OH; linker N-4 via Tartaroyl(2R,3R-(OAc)2)) | > 100 µM
CC(=O)O[C@H]1C(=O)Nc2ccc(cc2)C[C@@H](C(=O)N[C@@H](Cc2ccccc2)C(=O)O)NC(=O)[C@H](CCc2ccccc2)NC(=O)[C@@H](Cc2ccc(Br)cc2)NC(=O)[C@H](Cc2cccs2)NC(=O)[C@@H]1OC(C)=O [Compound 416] ([2Thi][dPhe(4-Br)][hPhe][Phe(4-NH2)]F-OH; linker N-4 via Tartaroyl(2R,3R-(OAc)2)) | > 100 µM
O=C1CCC(=O)N[C@H](CCc2ccccc2)C(=O)N[C@@H](Cc2ccc3ccccc3c2)C(=O)N[C@H](Cc2ccccc2)C(=O)N[C@H](C(=O)O)Cc2ccc(cc2)N1 [Compound 109] ([d(hPhe)][2Nal][dF][Phe(4-NH2)]-OH; linker N-4 via Suc) | 10 to 30 µM
N#Cc1cccc(C[C@H]2CC(=O)N[C@H](C(=O)O)Cc3ccc(cc3)OCC(=O)N[C@@H](Cc3cccs3)C(=O)N[C@H](Cc3ccc(-c4ccccc4)cc3)C(=O)N2)c1 [Compound 641] | < 10 µM
O=C1CCC(=O)N[C@H](CCc2ccccc2)C(=O)N[C@@H](Cc2ccc(C(F)(F)F)cc2)C(=O)N[C@@H](Cc2ccco2)C(=O)N[C@H](C(=O)O)Cc2ccc(cc2)N1 [Compound 224] ([d(hPhe)][Phe(4-CF3)][Ala(2-furyl)][Phe(4-NH2)]-OH; linker N-4 via Suc) | > 100 µM
O=C(O)CNC(=O)[C@@H]1Cc2ccc(cc2)OCC(=O)N[C@@H](Cc2cccs2)C(=O)N[C@@H](Cc2ccc(-c3ccccc3)cc2)C(=O)N[C@@H](Cc2ccccc2)C(=O)N1 [Compound 329] | < 10 µM
O=C1CCC(=O)N[C@H](CCc2ccccc2)C(=O)N[C@@H](Cc2ccc(-c3cccc(F)c3)cc2)C(=O)N[C@H](Cc2ccccc2)C(=O)N[C@H](C(=O)O)Cc2ccc(cc2)N1 [Compound 181] | 10 to 30 µM
COc1cccc(C[C@H]2NC(=O)CCC(=O)Nc3ccc(cc3)C[C@@H](C(=O)O)NC(=O)[C@@H](Cc3ccccc3)NC(=O)[C@H](Cc3ccc(C(F)(F)F)cc3)NC2=O)c1 [Compound 138] ([dPhe(3-OMe)][Phe(4-CF3)][dF][Phe(4-NH2)]-OH; linker N-4 via Suc) | > 100 µM
O=C(O)CNC(=O)[C@@H]1Cc2ccc(cc2)OCC(=O)N[C@@H](Cc2ccc(-c3ccccc3)cc2)C(=O)N[C@H](Cc2ccc(-c3ccccc3)cc2)C(=O)N[C@@H](CCc2ccccc2)C(=O)N1 [Compound 570] | 10 to 30 µM
COC(=O)[C@@H]1Cc2ccc(cc2)OCC(=O)N[C@@H](Cc2cccs2)C(=O)N[C@H](Cc2ccc(-c3ccccc3)cc2)C(=O)N[C@@H](CCc2ccccc2)C(=O)N1 [Compound 615] | > 100 µM
CC(C)(NC(=O)[C@@H]1Cc2ccc(cc2)OCC(=O)N[C@@H](Cc2cccs2)C(=O)N[C@H](Cc2ccc(-c3ccccc3)cc2)C(=O)N[C@@H](CCc2ccccc2)C(=O)N1)C(=O)O [Compound 477] | < 10 µM
O=C(O)[C@H](Cc1ccccc1)NC(=O)[C@@H]1Cc2ccc(cc2)NC(=O)[C@H](O)[C@@H](O)C(=O)N[C@@H](Cc2cccs2)C(=O)N[C@H](Cc2ccc(Br)cc2)C(=O)N[C@@H](Cc2ccccc2)C(=O)N1 [Compound 439] | 30 to 100 µM
O=C1COc2ccc(cc2)C[C@@H](C(=O)O)NC(=O)[C@H](CCc2ccccc2)NC(=O)[C@@H](Cc2ccc(-c3ccccc3)cc2)NC(=O)[C@H](Cc2ccco2)N1 [Compound 687] | < 10 µM
O=C(O)[C@@H]1Cc2ccc(cc2)NC(=O)[C@H](O)[C@@H](O)C(=O)N[C@H](Cc2ccc(F)cc2)C(=O)N[C@@H](Cc2ccc(-c3ccccc3)cc2)C(=O)N[C@H](Cc2ccccc2)C(=O)N1 [Compound 261] | 30 to 100 µM
O=C1COc2ccc(cc2)C[C@@H](C(=O)N[C@H](Cc2ccccc2)C(=O)O)NC(=O)[C@H](Cc2ccccc2F)NC(=O)[C@@H](Cc2ccc(-c3ccccc3)cc2)NC(=O)[C@H](Cc2cccs2)N1 [Compound 587] | < 10 µM
O=C1CCNc2ccc(cc2)C[C@@H](C(=O)O)NC(=O)[C@@H](Cc2ccccc2)NC(=O)[C@H](Cc2ccc(-c3ccccc3)cc2)NC(=O)[C@@H](Cc2cccs2)N1 [Compound 6] | > 100 µM
O=C(O)CCC(=O)N[C@H]1CNC(=O)c2ccc(cc2)C[C@@H](C(=O)O)NC(=O)[C@@H](Cc2ccccc2)NC(=O)[C@H](Cc2ccc(-c3ccccc3)cc2)NC(=O)[C@@H](CCc2ccccc2)NC1=O [Compound 267] (Suc-[Dap][d(hPhe)][Bip][dF][Phe(4-COOH)]-OH; lactam 1-5) | > 100 µM
